Laboratory results as given in US20030207856A1, “Medical devices and compositions for delivering anti-proliferatives to anatomical sites at risk for restenosis” (priority 2002, published 2003).

Tested on: Human coronary smooth muscles cells (HCASMC)
Assay: Human coronary artery smooth muscle cell proliferation inhibition
Assay type: cell-based
Details: day four, both cell culture schemes, FIGS. 6 and 7
Experimental: Inhibition of Human Coronary Artery Smooth Muscle Cells by Geldanamycin
1. Human coronary smooth muscles cells (HCASMC) were obtained from Clonetics, a division of Cambrex, Inc.
2. HCASMA basal media, supplied by Clonetics and supplemented with fetal bovine serum, insulin, hFGF-B (human fibroblast growth factor) hEGF (human epidermal growth factor).
Human coronary smooth muscles cells (HCASMC) were seeded in 24 well polystyrene tissue culture plates at a density of 5×10^3 cells per well. Two different feeding and reading strategies were employed. Strategy 1: Cells were plated in cell culture media containing various concentrations of geldanamycin (see Table 1) and incubated at 37° C. for 48 hours. After the initial 48 hour incubation, the geldanamycin containing plating media was changed and the cells were fed with drug free media and incubated for an additional 48 hours and then read.
Strategy 2: Cells were plated in cell culture media containing various concentrations of geldanamycin (see Table 1) and incubated at 37° C. for 48 hours. After the initial 48 hours incubation, the geldanamycin-containing plating media was changed and the cells were fed with geldanamycin-containing media and incubated for an additional 48 hours and then read. […]
On day four cultures were analyzed to determine the proliferation inhibition effects of geldanamycin. […]

## COC1=C2C[C@@H](C)C[C@H](OC)[C@H](O)[C@@H](C)/C=C(\C)[C@H](OC(N)=O)[C@@H](OC)/C=C\C=C(/C)C(=O)NC(=CC1=O)C2=O [geldanamycin]
Geldanamycin 0.9 nM
  HCASMC inhibition (percent inhibition of proliferation): > 50%
Geldanamycin 50 nM
  HCASMC inhibition (percent inhibition of proliferation): ~100%
